Laboratory results from patent US10179770B2, “Quinolines derivatives as novel anticancer agents” (GENOSCIENCE PHARMA, priority 2013, dated 2019).
pEC50: −log10 of the molar value.

Legend:
[1] = tested on: patient derived acute myeloid leukemia (AML) cell lines; assay: Cell growth inhibition assay, patient derived AML cells; format: cell-based, human; conditions: Homo sapiens, 48 h
Protocol: The patient derived acute myeloid leukemia (AML) cells were obtained after written informed consent under the Institut Paoli Calmette (IPC) institutional review board approval and under the strict compliance of the Helsinki declaration on medical research involving human subjects. […] Each compound was added at different concentrations (combinations of six concentrations) to each well, and cell cultures were incubated for 48 h. Vehicle (H2O) was used as a control, and all compounds were tested in a constant percentage of vehicle. Cell outgrowth was measured using the CellTiter-Glo luminescent cell viability assay as described by the manufacturer (Promega, Ref G7571 Madison, Wis., USA) using a Centro (Berthold, France) plate reader. In each experiment, each point represents the average of triplicates in cell culture. The experimental data are analyzed using a computer program, Graphpad Prism (GraphPad Software, Inc.

[2] = tested on: HCT-116; assay: Cell proliferation assay at 10 μM; format: cell-based; conditions: Homo sapiens, HCT-116, 72 h, read-out: Cell viability observed at 10 μM
Procedure, shortened: (§1)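 A375 and HCT-116 cells grown in DMEM with 10% FBS, seeded overnight, then exposed to compound at 10 μM for 72 h at 37 °C, 5% CO2 against vehicle control. Outgrowth read by MTS (CellTiter 96 Aqueous One) absorbance; each point the mean of two replicates.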

[3] = tested on: A375; assay: Cell proliferation assay at 10 μM; format: cell-based, human; conditions: Homo sapiens, A-375, 72 h, read-out: Cell viability observed at 10 μM
Procedure, shortened: as §1

[4] = tested on: MV4-11; assay: EC50 determination in cancer cell lines; format: cell-based; conditions: Homo sapiens, 72 h
Protocol: (§2) Compounds were added at different concentrations to each well, and cell cultures were incubated for 72 h. Vehicle (DMSO or H2O) was used as a control, and all compounds were tested in a constant percentage of vehicle. Cell outgrowth was measured using for adherent cells CellTiter […] Aqueous One Solution Cell Proliferation Assay (Promega) and for cell suspension, Sulforhodamine B colorimetric assay as described in Vichai et al. (Vichai, V. and Kirtikara, K. Nat. Protoc. 2006 (1) 1112-1116). Absorbance was measured using an Infinite F200 Pro or Sunrise TECAN plate reader.
(§3) The human melanoma cell line A375, colorectal carcinoma cell line HCT-116, hepatocellular carcinoma cell line HepG2 were cultured in Dulbecco's modified Eagle's medium supplemented with 10% fetal bovine serum and 1% Penicillin-Streptomycin. The human melanoma cell lines SK-MEL-28 and SK-MEL-5 were cultured in Minimum Essential Medium. The colorectal carcinoma cell lines HT-29 and Colo205 were respectively cultured in Mc Coy's and RPMI media. The human leukemia cell lines MV4-11 and KG-1 were cultured in Iscove's Modified Dulbecco's Media. The human leukemia cell line MOLM-14 was cultured in Minimum Essential Medium Alpha Medium supplemented with 10% Fetal Bovine Serum and 1% Penicillin-Streptomycin All culture media were supplemented with 10% fetal bovine serum and 1% Penicillin-Streptomycin except for MV4-11 cell line 20% fetal bovine serum and 1% Penicillin-Streptomycin. All the cell lines were maintained at 37° C. with 5% C02.
(§4) Briefly, adherent cells, A375, HCT-116, HepG2, SK-MEL-28, SK-MEL-5, HT-29 and Colo205 cells were respectively plated at 800, 5,000, 7,000, 2,500, 3,000-5,000, 5,000 or 5,000 cells per well onto 96-well plates in 90 μL of media per well and were allowed to grow overnight before the assay. For MV4-11 and KG-1 cells that grow in suspension, 40,000-60,000 cells were plated onto 96-well plates immediately before the assay. MOLM-14 cell line, that grow in suspension, 30,000 cells were plated onto 96-well plates immediately before the assay.
(§5) The cell growth measure was the same as described in example 51.
(§6) The experimental data are analyzed using a computer program, Graphpad Prism (GraphPad Software, Inc. La Jolla, Calif.) and EC50 values were determined as the dose of compound required to reduce absorbance values to 50% of the signal obtained for vehicle treated cell cultures and were a mean of at least two independent experiments except for EC50 values with (*) where […].

[5] = tested on: PBMC Healthy voluntary donor; assay: Cell growth inhibition assay, PBMC of healthy donors; format: cell-based, human; conditions: Homo sapiens, PBMC
Protocol: Each compound was added at different concentrations (combinations of six concentrations) to each well, and cell cultures were incubated for 48 h. Vehicle (H2O) was used as a control, and all compounds were tested in a constant percentage of vehicle. Cell outgrowth was measured using the CellTiter-Glo luminescent cell viability assay as described by the manufacturer (Promega, Ref G7571 Madison, Wis., USA) using a Centro (Berthold, France) plate reader. In each experiment, each point represents the average of triplicates in cell culture. The experimental data are analyzed using a computer program, Graphpad Prism (GraphPad Software, Inc.

[6] = tested on: A-375; assay: EC50 determination in cancer cell lines; format: cell-based, human; conditions: Homo sapiens, A-375, 72 h
Protocol: as §2, §3, §4, §5, §6

[7] = tested on: MOLM-14; assay: Cell proliferation assay at 10 μM; format: cell-based, human; conditions: Homo sapiens, MOLM-14, 72 h, read-out: Cell viability observed at 10 μM
Procedure, shortened: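 MOLM-14 suspension cells (30,000/well, MEM alpha with 10% FBS) treated with compound at 10 μM, constant vehicle percentage, for 72 h at 37° C. Outgrowth measured by sulforhodamine B absorbance; each point is mean of two replicates.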

[8] = tested on: HCT-116; assay: EC50 determination in cancer cell lines; format: cell-based, human; conditions: Homo sapiens, HCT-116, 72 h
Protocol: as §2, §3
Briefly, adherent cells, A375, HCT-116, HepG2, SK-MEL-28, SK-MEL-5, HT-29 and Colo205 cells were respectively plated at 800, 5,000, 7,000, 2,500, 3,000-5,000, 5,000 or 5,000 cells per well onto 96-well plates in 90 μL of media per well and were allowed to grow overnight before the assay. For MV4-11 and KG-1 cells that grow in suspension, 40,000-60,000 cells were plated onto 96-well plates immediately before the assay. MOLM-14 cell line, that grow in suspension, 30,000 cells were plated onto 96-well plates immediately before the assay. […]
as §6

[9] = tested on: HT-29; assay: EC50 determination in cancer cell lines; format: cell-based; conditions: Homo sapiens, 72 h, * n>2
Protocol: as §2, §3, §4, §5, §6

[10] = tested on: HepG2; assay: EC50 determination in cancer cell lines; format: cell-based, human; conditions: Homo sapiens, HepG2, 72 h
Protocol: as §2, §3, §4, §5, §6

SMILES | pEC50 ([1]; Patient 3, subtype Tri8) | pEC50 ([1]; Patient 8, subtype FLT3−) | pEC50 ([1]; Patient 9, subtype FLT3+) | pEC50 ([1]; Patient 10, subtype Inv 3) | pEC50 ([1]; Patient 12, subtype 5 & 7) | pEC50 ([1]; Patient 13, subtype MLL) | pEC50 ([1]; Patient 16, subtype Inv 3) | viability at 10 µM [2] [%] | viability at 10 µM [3] [%] | pEC50 [4] | pEC50 ([5]; PBMC Healthy voluntary donor 1) | pEC50 ([5]; PBMC Healthy voluntary donor 2) | pEC50 [6] | viability at 10 µM [7] [%] | pEC50 [8] | pEC50 [9] | pEC50 [10]
CC(C)(C)NC1CCN(c2cc(-c3ccc(Cl)cc3)nc3ccccc23)CC1.Cl.Cl [XII-4, 2-(4-chloro-phenyl)-4-(4-N-tert-butylamino-piperidin-1-yl)quinoline dihydrochloride] | 5.30 | 4.68 | < 4.40 | 4.60 | < 4.40 | 4.57 | 4.72 | < 20 | < 20 | 5.70 | 4.37 | 4.82 | 5.30 | < 20 |  |  | 
Cc1ccc(-c2cc(N3CCC(NC(C)(C)C)CC3)c3ccccc3n2)cc1.Cl.Cl [XIII-8, 2-(4-methyl-phenyl)-4-(4-N-tert-butylamino-piperidin-1-yl)quinoline dihydrochloride] | 4.82 | 4.57 | 4.66 | 4.46 | 4.68 | 4.60 | 4.62 | < 20 | < 20 | 5.70 | 4.38 | 4.80 | 5.22 | < 20 | 5.10 | 4.80 | 4.77
CCN(CC)C1CCN(C(C)c2cc(-c3ccccc3)nc3ccccc23)CC1.Cl.Cl (stereo not shown) [XIX-3, 2-phenyl-4-{1-[4-(N,N-diethylamino)piperidin-1-yl]-eth-1-yl}quinoline dihydrochloride] | 5.10 | 4.68 | 4.74 | 4.55 | 4.80 | 4.80 | 4.66 | 20 to 40 | < 20 | 5.05 |  | 4.68 | 5.05 | 20 to 40 | 4.92 | 4.74 | 4.66
CCN(CC)C1CCN(C(C)c2cc(-c3ccc4ccccc4c3)nc3ccccc23)CC1.Cl.Cl (stereo not shown) [XXIV-3, 2-(2-naphtyl)-4-{1-[4-(N,N-diethylamino)-piperidin-1-yl]-eth-1-yl}quinoline dihydrochloride] | 5.70 | 5.00 | 4.77 | 4.89 | 4.96 | 5.10 | 5.22 | < 20 | < 20 | 5.52 | 5.10 | 5.15 | 5.52 | < 20 | 5.40 | 5.15 | 4.96
